Values of other authors as cited in patent publication US20090176772A1, “METHOD OF REVERSING LEFT VENTRICULAR REMODELING” (priority 2004, published 2009).

System: LV reverse remodeling
Conditions: historical data, Sabbah et al. (1994) Circ. 89:2852-2859; cited from earlier work

SMILES | Ability to reduce LV end-diastolic volume (FIG. 1) | Ability to reduce LV end-systolic volume (FIG. 2)
COCCc1ccc(OCC(O)CNC(C)C)cc1 (stereo not shown) [metoprolol] | neither ranolazine, enalapril, nor metoprolol were independently able to reduce LV end-diastolic volume | neither ranolazine, enalapril, nor metoprolol appear to independently reduce LV end-systolic volume
CCOC(=O)[C@H](CCc1ccccc1)N[C@@H](C)C(=O)N1CCC[C@H]1C(=O)O [enalapril] | neither ranolazine, enalapril, nor metoprolol were independently able to reduce LV end-diastolic volume | neither ranolazine, enalapril, nor metoprolol appear to independently reduce LV end-systolic volume
